According to patent US20250145606A1 (Arcus Biosciences, Inc., priority 2023, published 2025):

Tests used:
Conditions in all cases: biochemical, HTRF KinEASE-TK
c-Kit = c-Kit (Homo sapiens (Human), UniProt P10721); assay: Inhibition of c-Kit kinase activity (HTRF KinEASE-TK); type: biochemical
Protocol: (§1) Inhibition of c-Kit, PDGFRα, PDGFRβ, CSFIR and FLT3 Kinase Activity
(§2) Compounds were evaluated to determine the potency with which they inhibit the kinase activity of the following panel of tyrosine kinases: c-Kit (SignalChem, Product #: K06-11BG), PDGFRα (SignalChem, Product #: P12-18G), PDGFRβ (SignalChem, Product #: P13-11G), CSFIR (SignalChem, Product #: C74-11G) and FLT3 (Invitrogen, Product #: PR4666C). Activity was determined as a function of phosphorylated biotinylated TK peptide generated by the transfer of phosphate from ATP as measured by the use of the HTRF KinEASE-TK assay kit (Cisbio, Product #: 62TKOPEJ). Levels of phosphorylated biotinylated TK peptide (Part 61TKOBLC of KinEASE assay kit) are quantified by its capture by phosphor-TK-Antibody-Cryptate (Part of KinEASE assay kit) and XL665-labeled Streptavidin (Part 610SAXLG of KinEASE assay kit) followed by measurement of Time-Resolved Fluorescence Resonance Energy Transfer (TR-FRET) signal. On the day of the assay, compounds were solubilized in DMSO and dispensed into a 384-well white Opti-plate (PerkinElmer, catalog #6007290) to generate a 22 point 1:2 titration. Enzyme solution was prepared for each of the tyrosine kinases in 50 mM HEPES, pH 7.4, 5 mM MgCl2 for c-Kit or 10 mM MgCl2 for FLT3, CSFIR, PDGFRa and PDGFRβ, 2 mM MnCl2, 0.01% Brij-35 and 0.01% BSA. Working enzyme concentrations were prepared for c-Kit at 2 nM (2×), PDGFRa and PDGFRß at 10 nM (2×), CSFIR at 2 nM (2×) and FLT3 at 0.4 nM (2×). Five microliters of enzyme dilution of each tyrosine kinase were added to their respective 384-well white Opti-plate pre-dispensed with compound and allowed to incubate for 1 h at rt. Utilizing the same enzyme buffer recipe, 2x substrate mixes were prepared for each enzyme as follows: For c-Kit, 1.6 μM (2×) TK substrate and 16 μM (2×) ATP (Promega, catalog #V915). For PDGFRα, 3.2 μM TK substrate and 1 μM ATP. For PDGFRβ, 3.2 μM TK substrate and 40 μM ATP. For CSFIR, […] TK substrate and 20 μM ATP. For FLT3, 3.2 μM TK substrate and 100 μM ATP. Reactions were initiated by addition of 5 μL of the respective 2x substrate mix to each well of the plates containing the respective tyrosine kinase enzymes and were allowed to proceed for 120 minutes at rt, except for FLT3, the reaction time is 45 min. Following the reaction, 10 μL of detection mix consisting of 0.2 μM (2×) of Streptavidin-XL665 and 2 μM (2×) of TK-Antibody-Cryptate prepared in detection buffer (Part 62SDBRDF of KinEASE assay kit) was added and then allowed to incubate for 60 min. The TR-FRET signal was quantified by measuring the ratio of emission at 665 nm to 620 nm after excitation at 320 nm by reading on a PerkinElmer Envision multimode reader. Compound potencies (IC50 values) were determined using a standard 4-parameter non-linear regression fit.

PDGFRα = PDGFRα (Homo sapiens (Human), UniProt P16234); assay: Inhibition of PDGFRα kinase activity (HTRF KinEASE-TK)
Chain of PDGFRα (P16234 24-1089): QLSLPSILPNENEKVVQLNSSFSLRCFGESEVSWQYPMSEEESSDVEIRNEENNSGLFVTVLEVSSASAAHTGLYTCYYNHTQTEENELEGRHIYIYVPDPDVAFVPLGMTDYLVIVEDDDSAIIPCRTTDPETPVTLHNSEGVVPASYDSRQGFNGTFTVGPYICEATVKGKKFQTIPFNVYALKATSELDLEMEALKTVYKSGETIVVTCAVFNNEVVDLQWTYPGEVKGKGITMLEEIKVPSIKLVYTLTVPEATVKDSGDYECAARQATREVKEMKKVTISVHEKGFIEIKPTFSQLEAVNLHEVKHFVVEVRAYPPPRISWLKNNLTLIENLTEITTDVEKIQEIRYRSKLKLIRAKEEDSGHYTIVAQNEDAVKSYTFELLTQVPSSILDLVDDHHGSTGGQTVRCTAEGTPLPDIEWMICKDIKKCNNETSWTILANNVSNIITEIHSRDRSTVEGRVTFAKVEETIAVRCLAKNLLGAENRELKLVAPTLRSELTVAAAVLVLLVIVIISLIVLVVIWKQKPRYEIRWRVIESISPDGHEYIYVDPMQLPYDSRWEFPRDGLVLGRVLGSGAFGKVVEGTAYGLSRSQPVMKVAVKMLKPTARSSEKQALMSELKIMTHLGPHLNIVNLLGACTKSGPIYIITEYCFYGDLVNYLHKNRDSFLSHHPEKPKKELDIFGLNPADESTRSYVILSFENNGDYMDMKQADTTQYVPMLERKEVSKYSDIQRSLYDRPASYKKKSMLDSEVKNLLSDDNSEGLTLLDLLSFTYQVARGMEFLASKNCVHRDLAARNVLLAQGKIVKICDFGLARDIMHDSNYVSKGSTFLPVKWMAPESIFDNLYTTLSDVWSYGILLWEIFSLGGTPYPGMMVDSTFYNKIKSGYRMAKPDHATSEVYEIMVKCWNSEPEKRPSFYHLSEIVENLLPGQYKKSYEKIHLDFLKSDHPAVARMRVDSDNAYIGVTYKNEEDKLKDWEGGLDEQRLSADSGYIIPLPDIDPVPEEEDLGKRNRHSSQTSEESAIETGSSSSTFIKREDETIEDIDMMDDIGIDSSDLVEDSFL
Protocol: as §1, §2

PDGFRβ = PDGFRβ (Homo sapiens (Human), UniProt P09619); assay: Inhibition of PDGFRβ kinase activity (HTRF KinEASE-TK)
Chain of PDGFRβ (P09619 33-1106): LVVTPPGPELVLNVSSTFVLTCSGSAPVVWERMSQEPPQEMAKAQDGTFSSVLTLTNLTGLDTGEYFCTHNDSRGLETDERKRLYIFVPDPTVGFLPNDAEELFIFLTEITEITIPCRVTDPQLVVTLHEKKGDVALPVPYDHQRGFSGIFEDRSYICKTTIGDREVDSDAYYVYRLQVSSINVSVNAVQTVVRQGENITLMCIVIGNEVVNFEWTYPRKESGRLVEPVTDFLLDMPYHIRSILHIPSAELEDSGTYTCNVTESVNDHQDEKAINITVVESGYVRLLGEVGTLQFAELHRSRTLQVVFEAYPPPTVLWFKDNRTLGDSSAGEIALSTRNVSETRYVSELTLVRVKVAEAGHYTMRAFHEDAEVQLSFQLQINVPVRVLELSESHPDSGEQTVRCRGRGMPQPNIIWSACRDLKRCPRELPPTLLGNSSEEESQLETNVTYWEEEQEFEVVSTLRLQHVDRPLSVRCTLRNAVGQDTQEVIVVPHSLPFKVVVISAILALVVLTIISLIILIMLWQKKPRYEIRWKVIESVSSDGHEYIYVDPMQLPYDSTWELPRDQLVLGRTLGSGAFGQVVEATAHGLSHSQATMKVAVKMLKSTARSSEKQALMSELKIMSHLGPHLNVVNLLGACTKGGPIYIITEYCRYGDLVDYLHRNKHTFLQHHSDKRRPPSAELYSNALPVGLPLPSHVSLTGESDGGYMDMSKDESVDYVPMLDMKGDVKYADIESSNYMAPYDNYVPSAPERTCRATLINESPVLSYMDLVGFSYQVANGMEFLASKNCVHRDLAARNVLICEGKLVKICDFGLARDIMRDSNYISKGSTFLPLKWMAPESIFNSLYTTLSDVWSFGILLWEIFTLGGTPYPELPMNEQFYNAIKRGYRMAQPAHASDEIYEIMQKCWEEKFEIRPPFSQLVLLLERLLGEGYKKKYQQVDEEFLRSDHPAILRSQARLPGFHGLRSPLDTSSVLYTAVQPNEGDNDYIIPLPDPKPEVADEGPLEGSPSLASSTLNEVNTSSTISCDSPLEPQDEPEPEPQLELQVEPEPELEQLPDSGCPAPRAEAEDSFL
Protocol: as §1, §2

CSF1R = CSF1R (Homo sapiens (Human), UniProt P07333); assay: Inhibition of CSF1R kinase activity (HTRF KinEASE-TK)
Chain of CSF1R (P07333 20-972): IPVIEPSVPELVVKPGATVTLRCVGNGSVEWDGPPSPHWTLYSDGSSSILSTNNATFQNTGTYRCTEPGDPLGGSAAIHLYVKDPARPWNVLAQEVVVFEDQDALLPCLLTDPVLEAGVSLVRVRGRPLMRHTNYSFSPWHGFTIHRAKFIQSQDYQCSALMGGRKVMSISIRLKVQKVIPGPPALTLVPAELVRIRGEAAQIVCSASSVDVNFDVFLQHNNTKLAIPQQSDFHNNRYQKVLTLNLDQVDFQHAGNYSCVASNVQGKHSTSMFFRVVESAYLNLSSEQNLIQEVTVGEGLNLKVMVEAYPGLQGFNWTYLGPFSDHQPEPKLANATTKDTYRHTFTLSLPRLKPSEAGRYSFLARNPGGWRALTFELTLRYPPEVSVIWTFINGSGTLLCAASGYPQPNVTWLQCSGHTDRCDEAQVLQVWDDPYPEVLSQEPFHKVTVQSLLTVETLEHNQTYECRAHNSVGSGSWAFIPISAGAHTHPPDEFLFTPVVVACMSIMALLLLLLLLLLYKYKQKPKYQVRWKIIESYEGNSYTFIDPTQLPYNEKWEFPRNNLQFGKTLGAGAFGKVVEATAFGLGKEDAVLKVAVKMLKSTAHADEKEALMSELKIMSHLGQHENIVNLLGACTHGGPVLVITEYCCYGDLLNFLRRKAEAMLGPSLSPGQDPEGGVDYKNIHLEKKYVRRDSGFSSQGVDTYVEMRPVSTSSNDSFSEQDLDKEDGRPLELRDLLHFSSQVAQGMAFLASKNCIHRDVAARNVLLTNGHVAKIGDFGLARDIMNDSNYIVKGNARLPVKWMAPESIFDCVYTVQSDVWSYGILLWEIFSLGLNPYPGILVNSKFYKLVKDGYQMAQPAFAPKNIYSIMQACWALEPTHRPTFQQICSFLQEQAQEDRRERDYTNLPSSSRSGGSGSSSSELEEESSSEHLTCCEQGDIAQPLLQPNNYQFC
Protocol: as §1, §2

Chain of c-Kit (P10721 26-976): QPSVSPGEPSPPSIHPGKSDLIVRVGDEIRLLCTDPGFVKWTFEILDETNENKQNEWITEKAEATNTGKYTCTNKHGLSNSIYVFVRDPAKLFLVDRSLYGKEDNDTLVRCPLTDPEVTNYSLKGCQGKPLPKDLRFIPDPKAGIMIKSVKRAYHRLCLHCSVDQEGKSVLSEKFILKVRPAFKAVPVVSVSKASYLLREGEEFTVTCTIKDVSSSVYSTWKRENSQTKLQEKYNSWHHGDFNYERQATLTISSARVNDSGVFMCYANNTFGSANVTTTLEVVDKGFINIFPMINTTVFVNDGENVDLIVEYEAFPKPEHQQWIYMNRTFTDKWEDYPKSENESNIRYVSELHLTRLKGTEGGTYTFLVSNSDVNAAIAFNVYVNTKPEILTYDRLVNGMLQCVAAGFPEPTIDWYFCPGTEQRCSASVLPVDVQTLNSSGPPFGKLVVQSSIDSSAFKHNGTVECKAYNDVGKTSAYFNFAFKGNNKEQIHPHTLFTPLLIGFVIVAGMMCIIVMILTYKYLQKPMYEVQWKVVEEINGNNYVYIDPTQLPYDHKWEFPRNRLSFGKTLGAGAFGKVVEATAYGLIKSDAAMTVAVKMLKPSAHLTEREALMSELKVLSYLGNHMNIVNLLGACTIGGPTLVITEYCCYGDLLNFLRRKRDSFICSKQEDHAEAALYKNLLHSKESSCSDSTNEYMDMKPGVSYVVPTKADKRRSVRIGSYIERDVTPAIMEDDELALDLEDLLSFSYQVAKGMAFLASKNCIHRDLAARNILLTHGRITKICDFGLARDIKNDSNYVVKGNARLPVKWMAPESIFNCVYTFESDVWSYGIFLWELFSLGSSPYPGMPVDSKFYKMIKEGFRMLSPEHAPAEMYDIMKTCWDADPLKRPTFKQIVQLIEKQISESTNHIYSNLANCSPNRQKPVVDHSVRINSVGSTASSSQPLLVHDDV

Row | Structure (SMILES) | IC50 (c-Kit) [nM] | IC50 (PDGFRα) [nM] | IC50 (PDGFRβ) [nM] | IC50 (CSF1R) [nM]
1 | Cc1cc(F)c(C(=O)Nc2ncn(C)n2)cc1NC(=O)c1cnc(N)s1 [Example 174, 2-Amino-N-[4-fluoro-2-methyl-5-[(1-methyl-1,2,4-triazol-3-yl)carbamoyl]phenyl]-1,3-thiazole-5-carboxamide] | 100 to 1000 | > 1000 | > 1000 | > 1000
2 | Cc1cc(F)c(C(=O)Nc2nnc(C3CC3)s2)cc1NC(=O)c1cnc(N)s1 [Example 175, 2-Amino-N-[5-[(5-cyclopropyl-1,3,4-thiadiazol-2-yl)carbamoyl]-4-fluoro-2-methylphenyl]-1,3-thiazole-5-carboxamide] | < 100 | 100 to 1000 | < 100 | < 100
3 | Cc1cc(F)c(C(=O)Nc2nnc(C3CC3)[nH]2)cc1NC(=O)c1cnc(N)s1 [Example 176, 2-Amino-N-[5-[(5-cyclopropyl-4H-1,2,4-triazol-3-yl)carbamoyl]-4-fluoro-2-methylphenyl]-1,3-thiazole-5-carboxamide] | 100 to 1000 | > 1000 | > 1000 | > 1000
4 | Cc1cc(F)c(C(=O)Nc2cc(C3CC3)[nH]n2)cc1NC(=O)c1cnc(N)s1 [Example 177, 2-Amino-N-[5-[(5-cyclopropyl-1H-pyrazol-3-yl)carbamoyl]-4-fluoro-2-methylphenyl]-1,3-thiazole-5-carboxamide] | < 100 | 100 to 1000 | 100 to 1000 | 100 to 1000
5 | Cc1cc(F)c(C(=O)Nc2cc(C(F)(F)F)ccn2)cc1NC(=O)c1cnc(N)s1 [Example 178, 2-Amino-N-[4-fluoro-2-methyl-5-[[4-(trifluoromethyl)pyridin-2-yl]carbamoyl]phenyl]-1,3-thiazole-5-carboxamide] | < 100 | < 100 | < 100 | < 100
6 | Cc1cc(F)c(C(=O)Nc2cc3n(n2)CCN(C)C3)cc1NC(=O)c1cnc(N)s1 [Example 180, 2-Amino-N-[4-fluoro-2-methyl-5-[(5-methyl-6,7-dihydro-4H-pyrazolo[1,5-a]pyrazin-2-yl)carbamoyl]phenyl]-1,3-thiazole-5-carboxamide] | < 100 | > 1000 | > 1000 | > 1000
7 | Cc1cc(F)c(C(=O)Nc2cc3n(n2)CCOC3)cc1NC(=O)c1cnc(N)s1 [Example 182, 2-Amino-N-[5-(6,7-dihydro-4H-pyrazolo [5,1-c][1,4]oxazin-2-ylcarbamoyl)-4-fluoro-2-methylphenyl]-1,3-thiazole-5-carboxamide] | < 100 | > 1000 | 100 to 1000 | > 1000
8 | Cc1cc(F)c(C(=O)Nc2ccc3c(c2)NC(=O)C3(C)C)cc1NC(=O)c1cnc(N)s1 [Example 183, 2-Amino-N-[5-[(3,3-dimethyl-2-oxo-1H-indol-6-yl)carbamoyl]-4-fluoro-2-methylphenyl]-1,3-thiazole-5-carboxamide] | < 100 | < 100 | < 100 | 100 to 1000
9 | Cc1cc(F)c(C(=O)Nc2ccc3c(c2)C(C)(C)C(=O)N3)cc1NC(=O)c1cnc(N)s1 [Example 184, 2-Amino-N-[5-[(3,3-dimethyl-2-oxo-1H-indol-5-yl)carbamoyl]-4-fluoro-2-methylphenyl]-1,3-thiazole-5-carboxamide] | < 100 | < 100 | < 100 | 100 to 1000
10 | CO[C@H]1C[C@@H](n2nccc2NC(=O)c2cc(NC(=O)c3cnc(N)s3)c(C)cc2F)C1 [Example 186, 2-Amino-N-[4-fluoro-5-[[2-(cis-3-methoxycyclobutyl)pyrazol-3-yl]carbamoyl]-2-methylphenyl]-1,3-thiazole-5-carboxamide] | 100 to 1000 | > 1000 | > 1000 | > 1000

Other lines, results leading:

Row | IC50 (c-Kit) [nM] | IC50 (PDGFRα) [nM] | IC50 (PDGFRβ) [nM] | IC50 (CSF1R) [nM] | Structure (SMILES)
11 | < 100 | < 100 | < 100 | < 100 | Cc1cc(F)c(C(=O)Nc2ccc3c(c2)C(F)(F)C(=O)N3)cc1NC(=O)c1cnc(N)s1 [Example 188, 2-Amino-N-[5-[(3,3-difluoro-2-oxo-1H-indol-5-yl)carbamoyl]-4-fluoro-2-methylphenyl]-1,3-thiazole-5-carboxamide]
12 | < 100 | < 100 | < 100 | < 100 | Cc1cc(F)c(C(=O)Nc2cc(C3CC3)ccn2)cc1NC(=O)c1cnc(N)s1 [Example 190, 2-Amino-N-[5-[(4-cyclopropylpyridin-2-yl)carbamoyl]-4-fluoro-2-methylphenyl]-1,3-thiazole-5-carboxamide]
13 | < 100 | > 1000 | > 1000 | > 1000 | Cc1cc(F)c(C(=O)Nc2ccc(OC3COC4(CC4)C3)cn2)cc1NC(=O)c1cnc(N)s1 (stereo not drawn) [Example 199, 2-Amino-N-[4-fluoro-2-methyl-5-[[5-(4-oxaspiro[2.4]heptan-6-yloxy)pyridin-2-yl]carbamoyl]phenyl]-1,3-thiazole-5-carboxamide]
14 | < 100 | 100 to 1000 | > 1000 | > 1000 | Nc1ncc(C(=O)Nc2cc(C(=O)NC3CC3)c(F)cc2Cl)s1 [Example 200, 2-Amino-N-[2-chloro-5-(cyclopropylcarbamoyl)-4-fluorophenyl]-1,3-thiazole-5-carboxamide]
15 | < 100 | > 1000 | > 1000 | > 1000 | COc1ccc(NC(=O)c2cc(NC(=O)c3cnc(N)s3)c(F)cc2F)nc1 [Example 211, 2-Amino-N-[2,4-difluoro-5-[(5-methoxypyridin-2-yl)carbamoyl]phenyl]-1,3-thiazole-5-carboxamide]
16 | 100 to 1000 | > 1000 | > 1000 | > 1000 | Cc1cc(F)c(NC(=O)c2cnc(N)s2)cc1C(=O)Nc1ccc(OC2CC2)cn1 [Example 223, 2-Amino-N-[5-[(5-cyclopropyloxypyridin-2-yl)carbamoyl]-2-fluoro-4-methylphenyl]-1,3-thiazole-5-carboxamide]
17 | < 100 | > 1000 | 100 to 1000 | > 1000 | Cc1cc(Cl)c(C(=O)Nc2ccc(OC3CC3)cn2)cc1NC(=O)c1cnc(N)s1 [Example 224, 2-Amino-N-[4-chloro-5-[(5-cyclopropyloxypyridin-2-yl)carbamoyl]-2-methylphenyl]-1,3-thiazole-5-carboxamide]
18 | < 100 | 100 to 1000 | < 100 | 100 to 1000 | Cc1cc(F)c(C(=O)Nc2ccc(C(F)C(F)(F)F)cn2)cc1NC(=O)c1cnc(N)s1 (stereo not drawn) [Example 225, 2-Amino-N-[4-fluoro-2-methyl-5-[[5-(1,2,2,2-tetrafluoroethyl)pyridin-2-yl]carbamoyl]phenyl]-1,3-thiazole-5-carboxamide]
19 | < 100 | 100 to 1000 | 100 to 1000 | 100 to 1000 | COc1ccc(NC(=O)c2cc(NC(=O)c3cnc(N)s3)c(C)cc2F)c(F)c1 [Example 228, 2-Amino-N-[4-fluoro-5-[(2-fluoro-4-methoxyphenyl)carbamoyl]-2-methylphenyl]-1,3-thiazole-5-carboxamide]
20 | < 100 | > 1000 | > 1000 | 100 to 1000 | Cc1cc(F)c(C(=O)Nc2cccc(F)c2)cc1NC(=O)c1cnc(N)s1 [Example 232, 2-Amino-N-[4-fluoro-5-[(3-fluorophenyl)carbamoyl]-2-methylphenyl]-1,3-thiazole-5-carboxamide]
21 | < 100 | > 1000 | > 1000 | > 1000 | Cc1cc(F)c(C(=O)Nc2ccccc2F)cc1NC(=O)c1cnc(N)s1 [Example 234, 2-Amino-N-[4-fluoro-5-[(2-fluorophenyl)carbamoyl]-2-methylphenyl]-1,3-thiazole-5-carboxamide]
